The results in this text go back to ChEMBL document CHEMBL1201862, “PubChem BioAssay data set” (2004).

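Five concentrations, 48 hours, 96-well plates. The concentration for 50% growth inhibition is given as GI50.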 Calls of active or inactive are those of the source. Rule as the data show it: active = GI50 up to about 1.1 µM and inactive = higher. Non-standard residues stand in square brackets, D forms with d. Residues, ends and D or L forms follow the SMILES beside them. *: point of attachment. Bn2Val = CC(C)[C@@H](C(=O)*)N(Cc1ccccc1)Cc1ccccc1; NH(4-Cl-benzyl) = Clc1ccc(CN*)cc1; NMeV = CN[C@H](C(=O)O)C(C)C; dNMeA = CN[C@H](C)C(=O)O

Among the test systems are U-251; TK-10; DMS-273; SF-268; HCT-15; M19-MEL; IGROV-1; OVCAR-3; COLO 205; SW-620; SK-MEL-5; ACHN; UACC-257; OVCAR-8; NCI/ADR-RES; MDA-N; DU-145; OVCAR-4; CCRF-CEM; NCI-H460.
What all share (assay): NCI-60 cell line screen, 48 h

For the compound `CCOC(=O)c1ccc(N2C(=O)Cc3ccccc3C2=O)cc1`, the GI50 was > 100 µM (inactive) with U-251; > 100 µM (inactive) in the experiment with TK-10; > 100 µM (inactive) in the experiment with DMS-273; > 100 µM (inactive) in the experiment with SF-268; greater than 100 µM in the experiment on HCT-15; > 100 µM (inactive) in the experiment with M19-MEL. Moreover, the GI50 in the experiment on IGROV-1 is > 100 µM (inactive); in the experiment with OVCAR-3 it was > 100 µM (inactive); with COLO 205, > 10 µM (inactive); in the experiment on SW-620, > 100 µM (inactive); in the experiment on SK-MEL-5, > 100 µM (inactive); in the experiment on ACHN, > 100 µM (inactive). Further, the GI50 in the experiment on UACC-257 and in the experiment on OVCAR-8 was > 100 µM (inactive) throughout.

Take `Cc1c(/N=C/C=C/c2ccccc2)c(=O)n(-c2ccccc2)n1C`: the GI50 in the experiment with U-251 was 15.6 µM (inactive); in the experiment on TK-10 it was 30.2 µM (inactive); in the experiment with NCI/ADR-RES, 25.9 µM (inactive); in the experiment with MDA-N it was 18.5 µM (inactive); in the experiment with SF-268, 33.6 µM (inactive); in the experiment with HCT-15, 47 µM. The GI50 was 33.9 µM (inactive) with DU-145; 33.7 µM (inactive) in the experiment on IGROV-1; 13 µM (inactive) with OVCAR-4; 24.5 µM (inactive) in the experiment on OVCAR-3; > 100 µM (inactive) with COLO 205; 6.87 µM (inactive) in the experiment with CCRF-CEM. Also, the GI50 was 23 µM (inactive) with SW-620; 15.3 µM (inactive) with SK-MEL-5; 29.8 µM (inactive) with ACHN; 45.3 µM (inactive) with UACC-257; 87.5 µM (inactive) in the experiment with NCI-H460; 17.4 µM (inactive) with OVCAR-8.

Take `CC(=O)C(CN(Cc1ccccc1)Cc1ccccc1)C(c1ccccc1)c1c(O)c2ccccc2oc1=O` (stereo not drawn): the GI50 in the experiment on U-251 is > 100 µM (inactive); in the experiment on TK-10, > 100 µM (inactive); in the experiment with SF-268, > 100 µM (inactive); with HCT-15, greater than 100 µM; with M19-MEL, > 100 µM (inactive); in the experiment with IGROV-1, > 100 µM (inactive). Further, the GI50 with OVCAR-4 is > 100 µM (inactive); with OVCAR-3, > 100 µM (inactive); in the experiment on CCRF-CEM, > 100 µM (inactive); in the experiment with SW-620, 71.4 µM (inactive); in the experiment on SK-MEL-5 it was > 100 µM (inactive); in the experiment on ACHN it was > 100 µM (inactive). Moreover, the GI50 in the experiment with UACC-257, with NCI-H460 and in the experiment with OVCAR-8 was > 100 µM (inactive) in each case.

On to `CN1C(=O)CNS1(=O)=O`, for which the GI50 with U-251 was > 100 µM (inactive); in the experiment with TK-10, > 100 µM (inactive); in the experiment on DMS-273, > 100 µM (inactive); with SF-268 it was > 100 µM (inactive); with HCT-15, greater than 100 µM; with IGROV-1, > 100 µM (inactive). Further, the GI50 in the experiment with OVCAR-3, in the experiment on CCRF-CEM, in the experiment with SW-620, in the experiment on SK-MEL-5, in the experiment on ACHN and in the experiment with UACC-257 was > 100 µM (inactive) throughout. Moreover, the GI50 in the experiment on NCI-H460 and in the experiment with OVCAR-8 was > 100 µM (inactive) each time.

Regarding `O=C1C2=C(CCC2)Nc2cccc3ncn1c23`, the GI50 in the experiment on U-251 was > 100 µM (inactive); in the experiment with TK-10, 14.7 µM (inactive); in the experiment with DMS-273, > 100 µM (inactive); with SF-268, > 100 µM (inactive); in the experiment on HCT-15, 48.1 µM; with M19-MEL it was > 100 µM (inactive). Further, the GI50 is > 100 µM (inactive) in the experiment on IGROV-1; 43.4 µM (inactive) in the experiment with COLO 205; > 100 µM (inactive) with CCRF-CEM; 70.1 µM (inactive) with SW-620; 69.5 µM (inactive) with SK-MEL-5; 33.2 µM (inactive) in the experiment on ACHN. Moreover, the GI50 in the experiment on UACC-257 was 64.7 µM (inactive); in the experiment with NCI-H460, 33.7 µM (inactive); in the experiment with OVCAR-8 it was > 100 µM (inactive).

`CCCCCCCCC/C=C1\CCC(CN(C)C)C1=O` (stereo not drawn): the GI50 in the experiment with U-251 was 1.66 µM (inactive); in the experiment with TK-10, 2.18 µM (inactive); in the experiment with DMS-273, 1.69 µM (inactive); in the experiment with SF-268, 1.97 µM (inactive); in the experiment on HCT-15, 2.22 µM; with M19-MEL, 1.86 µM (inactive). Besides, the GI50 in the experiment with IGROV-1 is 2.63 µM (inactive); in the experiment on COLO 205, 2.29 µM (inactive); in the experiment with CCRF-CEM it was 0.721 µM (active); in the experiment on SW-620 it was 1.58 µM (inactive); with SK-MEL-5, 2.05 µM (inactive); with ACHN, 2.2 µM (inactive). In addition, the GI50 in the experiment on UACC-257 was 1.69 µM (inactive); in the experiment on NCI-H460 it was 3.43 µM (inactive); in the experiment with OVCAR-8 it was 1.69 µM (inactive).

In the case of `O=C1c2ccccc2C(=O)c2[nH]c(Cc3ccccc3F)nc21`, the GI50 with U-251 was 7.96 µM (inactive); in the experiment with TK-10 it was 29.3 µM (inactive); with DMS-273 it was 34.6 µM (inactive); in the experiment with SF-268 it was 40.7 µM (inactive); in the experiment with HCT-15 it was 45.2 µM; with OVCAR-4, 28.1 µM (inactive). For the same compound, the GI50 was 14.5 µM (inactive) in the experiment with OVCAR-3; 33.7 µM (inactive) in the experiment with COLO 205; > 100 µM (inactive) in the experiment on CCRF-CEM; 37.9 µM (inactive) in the experiment with SW-620; 53.5 µM (inactive) with ACHN; 44.9 µM (inactive) with UACC-257. The figures for the GI50 in the experiment with NCI-H460 and in the experiment on OVCAR-8 were 33.9 µM (inactive) and 48.3 µM (inactive), respectively.

On to `COc1ccc2ccccc2c1C1=NC(C)(C)CO1`, for which the GI50 in the experiment with U-251 was > 100 µM (inactive); with TK-10 it was > 100 µM (inactive); in the experiment on SF-268 it was > 100 µM (inactive); in the experiment with HCT-15, greater than 100 µM; in the experiment with M19-MEL, > 100 µM (inactive); with IGROV-1, > 100 µM (inactive). Moreover, the GI50 in the experiment on OVCAR-4, with OVCAR-3, in the experiment on COLO 205, in the experiment with CCRF-CEM, with SW-620 and in the experiment on SK-MEL-5 was > 100 µM (inactive) throughout. The GI50 in the experiment with ACHN, with UACC-257, in the experiment on NCI-H460 and with OVCAR-8 was > 100 µM (inactive) each time.

`O=C(O)C1(Cc2ccccc2)Cc2ccccc2C1`: the GI50 in the experiment on U-251 is > 100 µM (inactive); in the experiment with TK-10, > 100 µM (inactive); in the experiment with NCI/ADR-RES, > 100 µM (inactive); with MDA-N, > 100 µM (inactive); in the experiment on SF-268, > 100 µM (inactive); in the experiment on HCT-15, greater than 100 µM. Further, the GI50 with DU-145, in the experiment on IGROV-1, in the experiment on OVCAR-4, in the experiment on OVCAR-3, with COLO 205 and in the experiment on CCRF-CEM was > 100 µM (inactive) throughout. Moreover, the GI50 in the experiment on SW-620, in the experiment on SK-MEL-5, in the experiment on ACHN, in the experiment on UACC-257, in the experiment on NCI-H460 and with OVCAR-8 was > 100 µM (inactive) in each case.

With `CO[C@]12CC(=O)C3(C(C[C@H]4CC5CC=C6C[C@@H](OC(C)=O)CC[C@]6(OC(C)=O)C5C[C@@]43C)C1)C1C[C@H]3[C@@H]4CC=C5C[C@@H](OC(C)=O)CC[C@]5(OC(C)=O)[C@H]4CC[C@]3(C)C12` (stereo partly drawn), the GI50 in the experiment on U-251 was 17.5 µM (inactive); in the experiment with TK-10 it was 43.2 µM (inactive); in the experiment on NCI/ADR-RES, 14 µM (inactive); with MDA-N it was 13.1 µM (inactive); in the experiment on SF-268 it was 56.9 µM (inactive); in the experiment on HCT-15, 21.6 µM. Moreover, the GI50 with DU-145 is 16.5 µM (inactive); with IGROV-1 it was 20.1 µM (inactive); in the experiment on OVCAR-4 it was 4.5 µM (inactive); in the experiment with OVCAR-3 it was 19.7 µM (inactive); with COLO 205 it was 3.1 µM (inactive); in the experiment with CCRF-CEM, 74 µM (inactive). Moreover, the GI50 was 41 µM (inactive) in the experiment on SW-620; 3.53 µM (inactive) in the experiment with SK-MEL-5; 22.9 µM (inactive) in the experiment on ACHN; 23.6 µM (inactive) with UACC-257; 16.3 µM (inactive) in the experiment on NCI-H460; 24.1 µM (inactive) with OVCAR-8.

`C[N+](C)(CCCCCC[N+](C)(C)CCCN1C(=O)c2cccc3cccc(c23)C1=O)CCCN1C(=O)c2cccc3cccc(c23)C1=O`: the GI50 with U-251 is > 100 µM (inactive); with TK-10, > 100 µM (inactive); in the experiment with NCI/ADR-RES, > 100 µM (inactive); in the experiment on MDA-N, > 100 µM (inactive); with SF-268 it was > 100 µM (inactive); in the experiment on HCT-15, greater than 100 µM. For the same compound, the GI50 in the experiment on DU-145 was > 100 µM (inactive); in the experiment on IGROV-1 it was > 100 µM (inactive); in the experiment on OVCAR-4, > 100 µM (inactive); with OVCAR-3, 84.9 µM (inactive); with COLO 205 it was > 100 µM (inactive); with CCRF-CEM, > 100 µM (inactive). The GI50 in the experiment with SW-620, in the experiment with SK-MEL-5, with ACHN, in the experiment on UACC-257, in the experiment with NCI-H460 and in the experiment on OVCAR-8 was > 100 µM (inactive) in each case.

For `CC(C)[C@H](NC(=O)[C@H](C(C)C)N(Cc1ccccc1)Cc1ccccc1)C(=O)N(C)[C@H](C(=O)N1CCC[C@H]1C(=O)N(C)[C@H](C)C(=O)NCc1ccc(Cl)cc1)C(C)C` (Bn2Val-V[NMeV]P[dNMeA]-{NH(4-Cl-benzyl)}), the GI50 in the experiment on U-251 is 2.86 µM (inactive); in the experiment with TK-10 it was 5.87 µM (inactive); in the experiment with NCI/ADR-RES it was 3.32 µM (inactive); in the experiment with MDA-N it was 4.43 µM (inactive); with SF-268 it was 2.98 µM (inactive); with HCT-15, 3.13 µM. Besides, the GI50 is 4.11 µM (inactive) with DU-145; 2.69 µM (inactive) in the experiment on IGROV-1; 3.96 µM (inactive) with OVCAR-4; 2.76 µM (inactive) in the experiment on OVCAR-3; 2.09 µM (inactive) in the experiment with COLO 205; 2.42 µM (inactive) in the experiment on CCRF-CEM. For the same compound, the GI50 with SW-620 was 3.72 µM (inactive); in the experiment on SK-MEL-5, 3.89 µM (inactive); with ACHN, 2.98 µM (inactive); in the experiment with UACC-257, 4.78 µM (inactive); in the experiment on NCI-H460, 3.96 µM (inactive); in the experiment with OVCAR-8, 4.22 µM (inactive).
